Earlier results in patent US20240000793A1, “OPHTHALMIC COMPOSITION CONTAINING LEVOFLOXACIN AND KETOROLAC, METHOD FOR THE PREPARATION AND USE THEREOF” (NTC S.R.L., priority 2020, published 2024).

Columns and labels:
[1] = versus pH
[2] = recent studies

SMILES | Solubility profile [1] | Time in the eye at levels above the minimum inhibitory concentration (MIC) [2]
O=C(c1ccccc1)c1ccc2n1CCC2C(=O)O (centres unmarked) [Ketorolac tromethamine] | pH dependent trend, significantly increasing at pH value>6.0 | 
C[C@H]1COc2c(N3CCN(C)CC3)c(F)cc3c(=O)c(C(=O)O)cn1c23 [Levofloxacin] |  | more than six hours
